Data reported in BindingDB's records for doi:10.7270/Q2QN656Q (The Scripps Research Institute Molecular Screening Center, 2010).
Where “and” joins values, the source holds several entries; their conditions need not be identical. Equal entries are not always repeated.

Target: Serine/threonine-protein phosphatase PP1-alpha catalytic subunit (Homo sapiens, UniProt P62136)
Assay: PP1 phosphatase inhibitors, dose response, biochemical, fluorescence (AID 2403)

Chain of Serine/threonine-protein phosphatase PP1-alpha catalytic subunit (P62136 whole entry): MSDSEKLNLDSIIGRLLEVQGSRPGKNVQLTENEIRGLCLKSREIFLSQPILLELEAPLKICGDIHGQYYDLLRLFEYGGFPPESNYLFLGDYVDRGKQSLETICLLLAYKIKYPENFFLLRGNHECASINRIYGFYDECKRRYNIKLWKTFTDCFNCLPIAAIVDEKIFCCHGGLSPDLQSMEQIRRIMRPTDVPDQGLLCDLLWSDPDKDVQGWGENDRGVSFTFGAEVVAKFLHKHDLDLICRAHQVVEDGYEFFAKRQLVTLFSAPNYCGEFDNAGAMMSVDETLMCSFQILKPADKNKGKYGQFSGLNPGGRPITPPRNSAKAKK

Compound | IC50
CC1(C)Cc2c(nn(-c3ccccc3)c(=N)c2C#N)CO1 | 55.8 µM
O=C1OC(=O)[C@H]2[C@@H]1[C@@H]1CC[C@H]2O1 [(1R,2S,6R,7S)-4,10-Dioxa-tricyclo[5.2.1.0*2,6*]decane-3,5-dione] | 4.12 µM and 2.83 µM
COc1ccc(CN=Nc2cc(C)nc(-n3nc(C)cc3C)n2)c(OC)c1 [MLS000589396] | 6.68 µM
CCOC(=O)c1sc(N2C(=O)C(=O)C(C(=O)c3ccco3)C2c2cccc([N+](=O)[O-])c2)nc1C (stereo not given) [MLS001082998] | 11.8 µM
COc1ccc(CN=Nc2cc(C)nc(-n3nc(C)cc3C)n2)cc1 [SMR000212741] | 5.81 µM
